Measured values: paper PMC7617456, “Cryptosporidium lysyl-tRNA synthetase inhibitors define the interplay between solubility and permeability required to achieve efficacy” (Science translational medicine, 2024)
Entries after “also recorded” stand apart in the source; their conditions may differ. Read-outs that look alike come from different tables or passages of the source.

How the values were obtained:
Dog pharmacokinetics = assay type: in vivo
Protocol: Dog pharmacokinetics (WuXi App Tec)
As for mouse except using male beagle dogs (IV dose volume: 3 mg/mL; dose vehicle: 10% DMSO, 40% PEG400, 50% (40%HP-β-CD in water); PO dose volume: 2 mg/mL; dose vehicle: 1% CMC-Na(800-1200)+0.2% Tween 80 in water). Pharmacokinetic parameters were derived from the blood concentration-time curve using WinNonLin Professional Software v 6.3 (Pharsight Corporation). […]

[1] = Liver microsomal intrinsic clearance, mouse; assay type: in vitro ADME; conditions: mouse liver microsomes
5-HT transporter (h) = biological target: T1, 5-HT transporter (h) (Homo sapiens, UniProt P31645); assay: SafetyScreen44 panel: 5-HT transporter; assay type: binding
T1 construct: Eurofins Cerep
Text: As previously described.(31)
Table S2. ADME properties and in vitro assessment of toxicity/off-target effects for DDD489 and […]
Data are from a single biological replicate. (A) In vitro ADME properties. FaSSIF is Fasted State Simulated Intestinal Fluid Solubility. MDCK-MDR1 is a Madin-Darby canine kidney cell line transfected with the MDR1 gene, encoding for the efflux protein, P-glycoprotein (P-gp). Papp is apparent permeability, measured in the presence of P-gp inhibitor, GF120918. Efflux ratio is calculated as the ratio of Papp B-A/A-B. CHIlogD is chromatographic hydrophobicity index logD, measured at pH 7.4. clogP is calculated logP, determined by […]
Heps Cli is liver hepatocyte intrinsic clearance,
PPB is plasma protein binding.
Data quoted is percent bound. M=mouse, r=rat, d=dog, b=bovine, h=human. (B) In vitro toxicity assays. Cyp450
IC50 is cytochrome p450 enzyme inhibition. Mini-Ames was conducted in the presence and absence of S9 mix in four strains of Salmonella typhimurium. hERG IC50 is human ether-a-go-go related gene inhibition, measured using manual patch-clamp technique. (C) Mitochondrial toxicity assay data. (D) In a safety p anel of receptors and […]

[2] = tested on: transgenic C. parvum that express NanoLuciferase; assay: NOD SCID Gamma chronic mouse efficacy model; assay type: in vivo; conditions: 50 mg/kg BID oral 7 days from day 36 PI
Protocol: We next developed a mouse efficacy model that mimics chronic infection. In this model, NOD SCID Gamma mice were allowed to become highly infected (>10^9 RLU) and maintain this for a minimum of one week before compound treatment was administered (Fig. 4C). To achieve efficacy against this chronic infection, compounds must kill more parasites, offering a more rigorous method for assessing suitability for progression.
Male NOD SCID Gamma mice (NOD.Cg-Prkdc^scid Il2rgtm1Wjl/SzJ; purchased from Charles Rivers) aged 10 weeks old were used (n = 4 mice per experimental group). Mice were infected by oral gavage (5,000 oocysts of Δtk::mNeon-Neo^R). Oocyst shedding in feces was determined by NanoLuciferase assay as described above. Once infection became chronic (at least 1 week of fecal RLUs/g at >10^9), compounds were administered. DDD489 was prepared in HPMC without DMSO and administered by oral gavage at 50 mg/kg starting day 36 post infection. Early lead compound DDD706 served as the positive control (administered at 20 mg/kg QD). Fecal samples were pooled from all mice in the cage on days indicated.

wild type C. parvum = assay: NOD SCID Gamma mouse efficacy model; assay type: in vivo; conditions: for parasite shedding once treatment finished (day 14 PI) / recrudescence (day 21 PI): 10 mg/kg BID oral 7 days; for log reduction in parasite shedding / parasite reduction: 10 mg/kg twice a day oral 7 days; for minimum efficacious dose (MED): BID oral 7 days, reduces parasite burden and prevents recrudescence
Protocol: An immunocompromised mouse model of cryptosporidiosis (Fig. 1C) was selected to examine the effect of each of the fourteen tool compounds on parasite reduction in vivo. […] Treatment started on day 7 post infection (PI) and concluded on day 13 PI. Infection was determined by measuring the number of parasites shed in the fecal material by quantitative PCR (oocysts/g). Efficacy was determined by calculating the log reduction in the number of oocysts shed by treated animals after completion of compound dosing (day 14) relative to the initial parasite burden in the same group of animals before treatment began (day 7 PI). Hypothesized compound absorption by BCS class is illustrated in Fig. S3. […] No Class I or Class IV compound achieved a log reduction above 2.0 (99% parasite reduction).
Efficacy of tool compounds in the NOD SCID Gamma mouse model was assessed as previously described.([14]) Male mice aged 3-5 weeks old were used, 4 mice per group (NOD.Cg-Prkdc^scid Il2rgtm1Wjl/SzJ; purchased from Jackson Labs). Mice were infected via gavage (100,000 wild type Iowa strain C. parvum oocysts from Bunchgrass Farms). Compounds were prepared fresh daily in HPMC with DMSO (0.5% hydroxypropylmethylcellulose, 0.4% Tween 80 and 0.5% Benzyl alcohol (v/v) plus 5% DMSO) and were administered by oral gavage at the concentration indicated starting 7 days post infection. Paromomycin served as the positive control (administered at 2000 mg/kg). Fecal samples were collected on days indicated. Oocyst shedding in feces was measured using a previously validated qPCR assay.([28])

mitochondrial function = assay: Functional mitochondrial toxicity assay (Seahorse XFe96); assay type: cell-based
[3] = male, beagle, whole blood, dog PO 10 mg/kg
[4] = read-out: Oxygen consumption AC50

T1 sequence (P31645 whole entry): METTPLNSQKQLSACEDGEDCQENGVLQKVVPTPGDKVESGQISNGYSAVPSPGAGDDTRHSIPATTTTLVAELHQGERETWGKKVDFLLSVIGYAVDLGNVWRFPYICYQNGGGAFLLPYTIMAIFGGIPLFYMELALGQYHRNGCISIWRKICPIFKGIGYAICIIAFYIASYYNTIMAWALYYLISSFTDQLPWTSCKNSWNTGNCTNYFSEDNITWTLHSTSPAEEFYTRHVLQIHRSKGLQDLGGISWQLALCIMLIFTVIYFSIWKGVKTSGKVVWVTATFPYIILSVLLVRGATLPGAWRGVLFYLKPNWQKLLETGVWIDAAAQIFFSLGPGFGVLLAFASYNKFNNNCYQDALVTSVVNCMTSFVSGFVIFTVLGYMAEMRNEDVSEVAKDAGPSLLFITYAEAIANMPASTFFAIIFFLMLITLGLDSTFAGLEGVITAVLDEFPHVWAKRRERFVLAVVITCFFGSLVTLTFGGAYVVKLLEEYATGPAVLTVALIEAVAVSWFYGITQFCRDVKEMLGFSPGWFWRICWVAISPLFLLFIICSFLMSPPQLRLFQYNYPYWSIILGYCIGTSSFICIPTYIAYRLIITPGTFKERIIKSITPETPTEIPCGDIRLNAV

| SMILES | Mics CLi (m) [1] [mL/min/g] | parasite shedding once treatment finished (day 14 PI) (wild type C. parvum) | recrudescence (day 21 PI) (wild type C. parvum) | log reduction in parasite shedding (wild type C. parvum) [log] | parasite reduction (wild type C. parvum) [%] | minimum efficacious dose (MED) (wild type C. parvum) [mg/kg] | Extracellular acidification rate AC50 (mitochondrial function) | AC50 (mitochondrial function; [4]) [µM] | further results |
| --- | --- | --- | --- | --- | --- | --- | --- | --- | --- |
| Nc1nc2c(c(C(F)(F)F)n1)C(=O)N(CC1CCCC(C(F)(F)F)C1)C2 (stereo not drawn) [DDD489] | 12 | reduces parasite shedding to the level of detection | unable to prevent recrudescence; also recorded: does not prevent recrudescence | > 2.8 | > 99.8 | 30 | No response | > 100 | CLB (Dog pharmacokinetics; dog IV 3 mg/kg, clearance in blood): 3.12 L/h/kg; half-life (Dog pharmacokinetics; male, beagle, whole blood, 3 mg/kg, dog, IV, read-out: T½ (converted)): 1.7 h; Vd (Dog pharmacokinetics; male, beagle, whole blood, 3 mg/kg, dog, IV, read-out: Vdss): 4.2 L/kg; AUC (Dog pharmacokinetics; male, beagle, whole blood, dog IV 3 mg/kg): 1 µg·h/mL; AUC (Dog pharmacokinetics; [3]): 0.667 µg·h/mL; Cmax (Dog pharmacokinetics; [3]): 0.2 µg/mL; Tmax (Dog pharmacokinetics; [3]): 1.2 h; bioavailability (Dog pharmacokinetics; male, beagle, whole blood, dog PO 10 mg/kg, read-out: F (oral bioavailability)): 18%; inhibition at 10 µM (5-HT transporter (h)): 62%; parasite shedding by end of treatment period [2]: reduce parasite shedding below the LOQ; recrudescence [2]: failed to prevent recrudescence; recrudescence at day 21 PI (wild type C. parvum; 50 mg/kg BID oral 7 days): prevents; Reserve capacity AC50 (mitochondrial function): No response |
| O=C(NCC1(O)CCCCC1)c1cc(=O)c2cc(O)ccc2o1 [DDD508] | 1.4 | parasite shedding to the level of detection | unable to prevent recrudescence | > 2.8 | > 99.8 | 30 | No response | > 100 | AC50 (mitochondrial function; read-out: Reserve capacity AC50): > 100 µM |
